Columns and labels:
[1] = molecular target: Muscarinic acetylcholine receptor M3 (Cavia porcellus) (UniProt Q8VH26); assay: Affinity for Muscarinic acetylcholine receptor M3 of guinea pig ileum.; assay type: tissue-based
[2] = molecular target: T1, Muscarinic acetylcholine receptor M2 (Homo sapiens) (UniProt P08172); assay: Affinity for Muscarinic acetylcholine receptor M2 of guinea pig heart.; conditions: Cavia porcellus; target entry is the homologue from another species
T1 sequence (whole entry): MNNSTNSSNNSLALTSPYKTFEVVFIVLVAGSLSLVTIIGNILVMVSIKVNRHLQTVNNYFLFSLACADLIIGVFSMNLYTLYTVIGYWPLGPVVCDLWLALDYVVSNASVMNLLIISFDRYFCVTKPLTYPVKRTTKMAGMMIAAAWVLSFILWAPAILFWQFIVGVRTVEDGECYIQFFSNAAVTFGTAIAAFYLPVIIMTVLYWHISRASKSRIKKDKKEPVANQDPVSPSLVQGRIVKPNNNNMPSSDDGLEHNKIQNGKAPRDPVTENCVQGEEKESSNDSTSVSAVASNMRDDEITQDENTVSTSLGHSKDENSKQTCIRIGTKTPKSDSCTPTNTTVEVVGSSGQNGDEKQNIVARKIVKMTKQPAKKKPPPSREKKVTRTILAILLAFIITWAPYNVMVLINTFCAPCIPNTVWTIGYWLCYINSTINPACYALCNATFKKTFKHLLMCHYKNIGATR

[3] = molecular target: T2, Muscarinic acetylcholine receptor M1 (Homo sapiens) (UniProt P11229); assay: Affinity for Muscarinic acetylcholine receptor M1 of rabbit vas deferens.; conditions: Oryctolagus cuniculus; target entry is the homologue from another species
T2 sequence (whole entry): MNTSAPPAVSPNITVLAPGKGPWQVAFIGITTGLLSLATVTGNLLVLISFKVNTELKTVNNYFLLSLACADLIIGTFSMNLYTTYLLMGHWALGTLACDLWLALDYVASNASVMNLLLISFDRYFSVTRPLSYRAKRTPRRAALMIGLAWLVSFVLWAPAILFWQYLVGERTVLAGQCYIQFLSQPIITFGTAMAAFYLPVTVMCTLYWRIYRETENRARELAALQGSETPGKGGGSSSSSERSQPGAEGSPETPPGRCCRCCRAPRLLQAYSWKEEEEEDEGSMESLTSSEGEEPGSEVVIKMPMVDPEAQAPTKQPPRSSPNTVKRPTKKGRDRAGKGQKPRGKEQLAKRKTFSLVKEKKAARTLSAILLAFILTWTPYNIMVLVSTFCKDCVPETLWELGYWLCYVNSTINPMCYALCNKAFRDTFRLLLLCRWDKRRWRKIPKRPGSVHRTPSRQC

Sequence of Muscarinic acetylcholine receptor M3 (Cavia porcellus) (Q8VH26 1-587): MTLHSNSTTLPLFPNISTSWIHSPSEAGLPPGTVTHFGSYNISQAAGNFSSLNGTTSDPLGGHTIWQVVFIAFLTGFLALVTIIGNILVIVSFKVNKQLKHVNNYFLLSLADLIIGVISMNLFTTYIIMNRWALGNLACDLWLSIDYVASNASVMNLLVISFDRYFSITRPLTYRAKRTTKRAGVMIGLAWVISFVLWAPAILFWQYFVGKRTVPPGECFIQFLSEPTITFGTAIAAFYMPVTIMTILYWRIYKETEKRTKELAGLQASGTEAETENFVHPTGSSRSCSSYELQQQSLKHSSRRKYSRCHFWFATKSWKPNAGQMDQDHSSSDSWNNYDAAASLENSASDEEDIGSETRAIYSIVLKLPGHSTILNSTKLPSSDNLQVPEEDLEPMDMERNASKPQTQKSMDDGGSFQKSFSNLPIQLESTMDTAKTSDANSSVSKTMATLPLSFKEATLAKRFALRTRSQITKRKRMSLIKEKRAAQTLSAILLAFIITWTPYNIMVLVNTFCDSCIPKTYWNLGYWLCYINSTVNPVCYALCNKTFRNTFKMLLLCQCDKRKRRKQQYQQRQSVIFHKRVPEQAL

| pKb [1] | pKb [2] | pKb [3] | SMILES |
| --- | --- | --- | --- |
| 8.4 | 8.38 | 8.23 | C[C@H]([C@@H]1COC(c2ccccc2)(c2ccccc2)O1)[N+](C)(C)C |
| 6.96 | 7.2 | 6.95 | CC(C1COC(c2ccccc2)(c2ccccc2)O1)N(C)C (racemic; form 1) |
| 6.41 | 6.41 | 6.52 | C[C@H](C1COC(c2ccccc2)(c2ccccc2)O1)N(C)C (some centres undefined) |
| 7.45 | 7.47 | 6.83 | C[C@H]([C@@H]1COC(c2ccccc2)(c2ccccc2)O1)N(C)C |
| 8 | 8.21 | 7.12 | C[C@@H](C1COC(c2ccccc2)(c2ccccc2)O1)[N+](C)(C)C (some centres undefined) |
| 7.94 | 8.03 | 8.11 | CC(C1COC(c2ccccc2)(c2ccccc2)O1)N(C)C (racemic; form 2) |
| 7.51 | 7.53 | 8.24 | C[C@H](C1COC(c2ccccc2)(c2ccccc2)O1)[N+](C)(C)C (some centres undefined) |
| 7.19 | 7.35 | 6.94 | C[C@@H](C1COC(c2ccccc2)(c2ccccc2)O1)N(C)C (some centres undefined) |
| 7.92 | 8.07 | 7.82 | CC(C1COC(c2ccccc2)(c2ccccc2)O1)[N+](C)(C)C (racemic; form 2) |
| 8.92 | 8.39 | 8.46 | C[C@@H]([C@H]1COC(c2ccccc2)(c2ccccc2)O1)N(C)C |
| 8.3 | 8.22 | 8.01 | CC(C1COC(c2ccccc2)(c2ccccc2)O1)[N+](C)(C)C (racemic; form 1) |
| 6.72 | 7.11 | 7.15 | CN(C)CC1COC(c2ccccc2)(c2ccccc2)O1 (centres undefined) |
| 7.85 | 7.82 | 7.47 | C[C@@H]([C@H]1COC(c2ccccc2)(c2ccccc2)O1)[N+](C)(C)C |
